Measured values published in patent US7601716B2, “Pyridopyrazines and derivatives thereof as ALK and c-Met inhibitors” (Cephalon, Inc., priority 2006, dated 2009).
Structures can show the parent of a compound that is named as a salt.

Legend:
[1] = biological target: baculovirus-expressed ALK (Homo sapiens, UniProt Q9UM73); assay: ALK Kinase Assay (ELISA/TRF, PLC-γ substrate); assay type: biochemical; conditions: read-out: ALK Kinase Inhibition (IC50); also: 1 µM ATP (Km level)
Outline: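 Substrate phosphorylation by 30 ng/ml ALK (37° C, 15 min) on PLC-γ-coated wells is quantified via time-resolved europium fluorescence from an anti-phosphotyrosine antibody. Percent inhibition against log10 compound concentration yields IC50 by nonlinear regression.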

[2] = biological target: T1, c-Met (cytoplasmic domain) (Homo sapiens, UniProt P08581); assay: c-Met Kinase Assay (ELISA/TRF, PLC-γ substrate); assay type: biochemical; conditions: 3 μM ATP (Km level); read-out: c-Met Kinase Inhibition (IC50)
T1 construct: Reactions were initiated with 30 ng/mL c-Met (cytoplasmic domain, Invitrogen Corporation #PV3143); purchased Invitrogen Corporation PV3143
Outline: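 Readout is TRF of europium anti-phosphotyrosine (PT66) bound to GST–PLC-γ substrate coated at 10 μg/mL, after a 15 min, 37 °C reaction started with 30 ng/mL c-Met cytoplasmic domain. Percent inhibition plotted against log compound concentration and fitted (variable slope) for IC50.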

baculovirus-expressed ALK, sequence (Q9UM73 19-1620): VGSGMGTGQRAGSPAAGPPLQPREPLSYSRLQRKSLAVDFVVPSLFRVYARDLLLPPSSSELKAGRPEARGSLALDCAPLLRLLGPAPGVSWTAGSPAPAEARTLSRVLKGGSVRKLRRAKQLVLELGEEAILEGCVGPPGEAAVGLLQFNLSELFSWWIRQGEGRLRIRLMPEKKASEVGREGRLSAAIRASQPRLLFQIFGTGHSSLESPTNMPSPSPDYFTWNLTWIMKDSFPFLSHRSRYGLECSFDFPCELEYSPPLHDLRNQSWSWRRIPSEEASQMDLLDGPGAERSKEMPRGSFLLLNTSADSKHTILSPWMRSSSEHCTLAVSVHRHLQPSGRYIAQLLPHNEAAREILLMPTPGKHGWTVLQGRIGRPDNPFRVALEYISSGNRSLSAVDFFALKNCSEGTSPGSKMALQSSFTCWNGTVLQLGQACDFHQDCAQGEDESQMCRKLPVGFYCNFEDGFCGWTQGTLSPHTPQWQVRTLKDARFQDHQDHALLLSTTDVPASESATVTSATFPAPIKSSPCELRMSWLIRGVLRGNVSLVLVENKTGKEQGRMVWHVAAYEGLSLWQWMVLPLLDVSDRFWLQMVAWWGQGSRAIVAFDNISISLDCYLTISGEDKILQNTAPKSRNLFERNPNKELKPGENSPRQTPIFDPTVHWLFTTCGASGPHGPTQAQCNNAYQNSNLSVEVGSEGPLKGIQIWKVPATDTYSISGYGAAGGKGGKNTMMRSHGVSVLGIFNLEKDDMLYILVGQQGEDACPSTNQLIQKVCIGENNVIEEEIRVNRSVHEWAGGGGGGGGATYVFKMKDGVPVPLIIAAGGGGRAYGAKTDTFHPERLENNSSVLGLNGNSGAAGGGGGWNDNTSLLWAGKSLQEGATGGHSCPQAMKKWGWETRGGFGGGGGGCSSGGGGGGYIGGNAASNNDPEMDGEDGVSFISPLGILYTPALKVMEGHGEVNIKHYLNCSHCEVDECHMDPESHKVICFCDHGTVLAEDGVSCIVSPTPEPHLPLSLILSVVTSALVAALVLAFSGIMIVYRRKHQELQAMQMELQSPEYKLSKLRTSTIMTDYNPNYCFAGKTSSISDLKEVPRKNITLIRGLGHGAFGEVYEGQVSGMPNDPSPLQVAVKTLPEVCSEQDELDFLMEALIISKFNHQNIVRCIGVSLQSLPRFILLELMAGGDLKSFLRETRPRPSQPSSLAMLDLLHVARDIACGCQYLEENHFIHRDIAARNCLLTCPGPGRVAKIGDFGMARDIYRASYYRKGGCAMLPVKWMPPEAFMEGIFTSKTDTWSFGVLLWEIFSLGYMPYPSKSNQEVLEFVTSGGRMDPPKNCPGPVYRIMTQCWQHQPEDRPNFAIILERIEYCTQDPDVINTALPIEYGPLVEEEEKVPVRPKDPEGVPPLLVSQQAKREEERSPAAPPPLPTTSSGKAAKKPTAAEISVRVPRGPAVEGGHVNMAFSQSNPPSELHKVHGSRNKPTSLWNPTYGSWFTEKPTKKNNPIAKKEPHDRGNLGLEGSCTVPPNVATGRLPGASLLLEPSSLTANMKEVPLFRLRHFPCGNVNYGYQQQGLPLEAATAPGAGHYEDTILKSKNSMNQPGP
T1 sequence (P08581 956-1390 limits assumed): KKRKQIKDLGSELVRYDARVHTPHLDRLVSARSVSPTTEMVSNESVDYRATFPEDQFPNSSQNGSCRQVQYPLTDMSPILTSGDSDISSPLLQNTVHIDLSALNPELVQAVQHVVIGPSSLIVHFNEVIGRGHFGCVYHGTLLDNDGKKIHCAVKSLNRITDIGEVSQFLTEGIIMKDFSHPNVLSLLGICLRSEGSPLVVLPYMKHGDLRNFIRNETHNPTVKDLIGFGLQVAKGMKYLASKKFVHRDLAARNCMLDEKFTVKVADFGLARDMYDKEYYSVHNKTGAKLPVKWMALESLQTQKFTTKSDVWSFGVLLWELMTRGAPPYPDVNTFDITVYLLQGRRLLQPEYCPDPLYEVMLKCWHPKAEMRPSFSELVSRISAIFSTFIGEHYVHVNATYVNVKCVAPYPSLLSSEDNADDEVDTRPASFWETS

Structure (SMILES)	IC50 [1] [µM]	IC50 [2] [µM]
O=C(NCc1cc(C(F)(F)F)cc(C(F)(F)F)c1)c1cnc2c(c1)N(Cc1cc(Cl)ccc1Cl)CCN2 [Example 239, 1-(2,5-Dichlorobenzyl)-1,2,3,4-tetrahydropyrido[2,3-b]pyrazine-7-carboxylic acid 3,5-bis-(trifluoromethyl)benzylamide]	1 to 10	> 100
CC(c1c(F)ccc(F)c1Cl)N1C(=O)CNc2ncc(I)cc21 (stereo not drawn) [Example 175, 1-[1-(2-Chloro-3,6-difluorophenyl)ethyl]-7-iodo-3,4-dihydro-1H-pyrido[2,3-b]pyrazin-2-one]	> 100	> 100
Clc1cccc(OC2CCNc3ncc(Br)cc32)c1 (stereo not drawn) [Example 271, 6-Bromo-4-(3-chlorophenoxy)-1,2,3,4-tetrahydro-[1,8]naphthyridine]	> 100	10 to 100
O=C(c1cnc2c(c1)N(Cc1cc(Cl)ccc1Cl)CCN2)N1CCC(c2ccccc2)CC1 [Example 212, [1-(2,5-Dichlorobenzyl)-1,2,3,4-tetrahydropyrido[2,3-b]pyrazin-7-yl]-(4-phenylpiperidin-1-yl)methanone]	1 to 10	1 to 10
CN1CCN(CCNC(=O)c2cnc3c(c2)N(Cc2cc(F)ccc2F)CCN3)CC1 [Example 80, 1-(2,5-Difluorobenzyl)-1,2,3,4-tetrahydropyrido[2,3-b]pyrazine-7-carboxylic acid[2(4-methylpiperazin-1-yl)ethyl]amide]	10 to 100	> 100
CC(c1cc(F)c(F)cc1F)N1CCNc2ncc(I)cc21 (stereo not drawn) [Example 147, 7-Iodo-1-[1-(2,4,5-trifluorophenyl)ethyl]-1,2,3,4-tetrahydropyrido[2,3-b]pyrazine]	10 to 100	> 100
O=C(c1ccc(-c2cnc3c(c2)N(C(=O)Cc2ccccc2)CCN3)cc1)N1CCC(N2CCCC2)CC1 [Example 111, 2-Phenyl-1-{7-[4-(4-(pyrrolidin-1-yl)piperidine-1-carbonyl)phenyl]-3,4-dihydro-2H-pyrido[2,3-b]pyrazin-1-yl}-ethanone]	> 100	10 to 100
CN1CCN(Cc2cc(Cl)ccc2Cl)c2cc(I)cnc21 [Example 187, 1-(2,5-Dichlorobenzyl)-7-iodo-4-methyl-1,2,3,4-tetrahydropyrido[2,3-b]pyrazine]	> 100	> 100
CN1CCN(C(=O)c2ccc(-c3cnc4c(c3)N(Cc3cc(F)c(F)cc3F)CCN4)cc2)CC1 [Example 86, (4-Methylpiperazin-1-yl)-{4-[1-(2,4,5-trifluorobenzyl)-1,2,3,4-tetrahydropyrido[2,3-b]pyrazin-7-yl]phenyl}-methanone]	1 to 10	1 to 10
O=C1CNc2ncc(-c3cccc(C(=O)N4CCC[C@H]4CN4CCCC4)c3)cc2N1Cc1ccccc1 [Example 18, S-1-Benzyl-7-[3-(2-[(pyrrolidin-1-yl)methyl]pyrrolidine-1-carbonyl)phenyl]-3,4-dihydro-1H-pyrido[2,3-b]pyrazin-2-one, trifluoroacetic acid salt]	1 to 10	10 to 100
CC(c1cc(F)ccc1F)N1C(=O)CNc2ncc(-c3ccc(C(=O)N4CCN(C)CC4)cc3)cc21 (stereo not drawn) [Example 152, 1-[1-(2,5-Difluorophenyl)ethyl]-7-[4-(4-methylpiperazine-1-carbonyl)phenyl]-3,4-dihydro-1H-pyrido[2,3-b]pyrazin-2-one, trifluoroacetic acid salt]	1 to 10	10 to 100
O=C(c1cnc2c(c1)N(Cc1cc(Cl)ccc1Cl)CCN2)N1CCN(CCc2ccccn2)CC1 [Example 229, [1-(2,5-Dichlorobenzyl)-1,2,3,4-tetrahydropyrido[2,3-b]pyrazin-7-yl]-[4-(2-pyridin-2-yl-ethyl)piperazin-1-yl]methanone]	1 to 10	1 to 10
FC(F)(F)c1ccc(CN2CCNc3ncc(-c4ccc(N5CCOCC5)nc4)cc32)o1 [Example 292, 7-(6-Morpholin-4-yl-pyridin-3-yl)-1-[5-(trifluoromethyl)furan-2-ylmethyl]-1,2,3,4-tetrahydropyrido[2,3-b]pyrazine]	1 to 10	> 100
Clc1cccc(OC2CCNc3ncc(-c4cccc(N5CCOCC5)c4)cc32)c1 (stereo not drawn) [Example 279, 4-(3-Chlorophenoxy)-6-(3-morpholin-4-yl-phenyl)-1,2,3,4-tetrahydro-[1,8]naphthyridine]	1 to 10	10 to 100
CC(C)(C)OC(=O)NCC#Cc1cnc2c(c1)N(Cc1c(Cl)cccc1Cl)CCN2 [Example 170, {3-[1-(2,6-Dichlorobenzyl)-1,2,3,4-tetrahydropyrido[2,3-b]pyrazin-7-yl]prop-2-ynyl}carbamic acid tert-butyl ester]	1 to 10	> 100
CN1CCN(C(=O)c2ccc(-c3cnc4c(c3)C(Oc3cccnc3)CCN4)cc2)CC1 (stereo not drawn) [Example 276, (4-Methylpiperazin-1-yl)-{4-[5-(pyridine-3-yloxy)-5,6,7,8-tetrahydro-[1,8]naphthyridin-3-yl]phenyl}methanone]	10 to 100	10 to 100
O=C(NCCOc1ccccc1)c1cnc2c(c1)N(Cc1cc(Cl)ccc1Cl)CCN2 [Example 251, 1-(2,5-Dichlorobenzyl)-1,2,3,4-tetrahydropyrido[2,3-b]pyrazine-7-carboxylic acid (2-phenoxyethyl)amide]	10 to 100	10 to 100
CC(c1cc(F)c(F)cc1F)N1CCNc2ncc(-c3ccc(C(=O)N4CCC[C@H]4CN4CCCC4)cc3)cc21 (stereo partly drawn) [Example 148, S-{2-[(pyrrolidin-1-yl)methyl]pyrrolidin-1-yl}-(4-{1-[1-(2,4,5-trifluorophenyl)ethyl]-1,2,3,4-tetrahydropyrido[2,3-b]pyrazin-7-yl}phenyl)methanone, trifluoroacetic acid salt]	0.1 to 1	10 to 100
O=C(c1ccccc1)N1CCN(C(=O)c2cnc3c(c2)N(Cc2cc(Cl)ccc2Cl)CCN3)CC1 [Example 219, (4-Benzoylpiperazin-1-yl)-[1-(2,5-dichlorobenzyl)-1,2,3,4-tetrahydropyrido[2,3-b]pyrazin-7-yl]methanone]	1 to 10	10 to 100

The remaining lines, values ahead:

IC50 [1] [µM]	IC50 [2] [µM]	Structure (SMILES)
10 to 100	10 to 100	CC(=O)c1ccc(F)cc1OC1CCNc2ncc(-c3ccc(C(=O)N4CCN(C)CC4)cc3)cc21 (stereo not drawn) [Example 277, 1-(4-Fluoro-2-{6-[4-(4-methylpiperazine-1-carbonyl)phenyl]-1,2,3,4-tetrahydro-[1,8]naphthyridin-4-yloxy}phenyl)ethanone]
0.1 to 1	> 100	NS(=O)(=O)c1ccc(CCNC(=O)c2cnc3c(c2)N(Cc2cc(Cl)ccc2Cl)CCN3)cc1 [Example 240, 1-(2,5-Dichlorobenzyl)-1,2,3,4-tetrahydropyrido[2,3-b]pyrazine-7-carboxylic acid [2-(4-sulfamoylphenyl)ethyl]amide]
0.1 to 1	> 100	O=C(NCCc1ccccc1)c1cnc2c(c1)N(Cc1cc(Cl)ccc1Cl)CCN2 [Example 253, 1-(2,5-Dichlorobenzyl)-1,2,3,4-tetrahydropyrido[2,3-b]pyrazine-7-carboxylic acid phenethyl-amide]
0.1 to 1	1 to 10	CN(C)CCn1cc(-c2cnc3c(c2)N(Cc2c(F)ccc(F)c2Cl)CCN3)cn1 [Example 197, (2-{4-[1-(2-Chloro-3,6-difluorobenzyl)-1,2,3,4-tetrahydropyrido[2,3-b]pyrazin-7-yl]-pyrazol-1-yl}ethyl)dimethylamine]
> 100	10 to 100	CN1CCN(C(=O)c2ccc(-c3cnc4c(c3)N(C(=O)c3ccccc3)CCN4)cc2)CC1 [Example 54, {7-[4-(4-Methylpiperazine-1-carbonyl)phenyl]-3,4-dihydro-2H-pyrido[2,3-b]pyrazin-1-yl}phenylmethanone]
0.1 to 1	1 to 10	CN1CCN(c2ccc(-c3cnc4c(c3)C(Oc3cccc(Cl)c3)CCN4)cn2)CC1 (stereo not drawn) [Example 281, 4-(3-Chlorophenoxy)-6-[6-(4-methylpiperazin-1-yl)pyridin-3-yl]-1,2,3,4-tetrahydro-[1,8]naphthyridine]
1 to 10	1 to 10	O=C(c1cnc2c(c1)N(Cc1cc(Cl)ccc1Cl)CCN2)N1CCN(c2nccc3occc23)CC1 [Example 220, [1-(2,5-Dichlorobenzyl)-1,2,3,4-tetrahydropyrido[2,3-b]pyrazin-7-yl]-(4-furo[3,2-c]pyridin-4-yl-piperazin-1-yl)methanone]
1 to 10	> 100	CN1CCN(c2ccc(-c3cnc4c(c3)C(Cc3cc(F)ccc3F)CCN4)cn2)CC1 (stereo not drawn) [Example 286, 4-(2,5-Difluorobenzyl)-6-[6-(4-methylpiperazin-1-yl)pyridin-3-yl]-1,2,3,4-tetrahydro-[1,8]naphthyridine]
1 to 10	1 to 10	O=C(O)c1ccc(-c2cnc3c(c2)N(Cc2cc(Cl)ccc2C(F)(F)F)CCN3)cc1 [Example 195, 4-{1-[5-Chloro-2-(trifluoromethyl)benzyl]-1,2,3,4-tetrahydropyrido[2,3-b]pyrazin-7-yl}benzoic acid]
0.1 to 1	1 to 10	CN(C)CCCCCCNC(=O)c1ccc(-c2cnc3c(c2)N(Cc2c(Cl)cccc2Cl)C(=O)CN3)cc1 [Example 143, 4-[1-(2,6-Dichlorobenzyl)-2-oxo-1,2,3,4-tetrahydropyrido[2,3-b]pyrazin-7-yl]-N-(6-dimethylaminohexyl)benzamide, trifluoroacetic acid salt]
> 100	10 to 100	O=C(O)c1cccc(-c2cnc3c(c2)N(Cc2ccccc2)C(=O)CN3)c1 [Example 31, 3-(1-Benzyl-2-oxo-1,2,3,4-tetrahydropyrido[2,3-b]pyrazin-7-yl)benzoic acid]
